The values that follow come from patent publication US20080015237A1 (ASTRAZENECA AB, priority 2006, published 2008).

Chain of human Kv1.5 channel (P22460 whole entry): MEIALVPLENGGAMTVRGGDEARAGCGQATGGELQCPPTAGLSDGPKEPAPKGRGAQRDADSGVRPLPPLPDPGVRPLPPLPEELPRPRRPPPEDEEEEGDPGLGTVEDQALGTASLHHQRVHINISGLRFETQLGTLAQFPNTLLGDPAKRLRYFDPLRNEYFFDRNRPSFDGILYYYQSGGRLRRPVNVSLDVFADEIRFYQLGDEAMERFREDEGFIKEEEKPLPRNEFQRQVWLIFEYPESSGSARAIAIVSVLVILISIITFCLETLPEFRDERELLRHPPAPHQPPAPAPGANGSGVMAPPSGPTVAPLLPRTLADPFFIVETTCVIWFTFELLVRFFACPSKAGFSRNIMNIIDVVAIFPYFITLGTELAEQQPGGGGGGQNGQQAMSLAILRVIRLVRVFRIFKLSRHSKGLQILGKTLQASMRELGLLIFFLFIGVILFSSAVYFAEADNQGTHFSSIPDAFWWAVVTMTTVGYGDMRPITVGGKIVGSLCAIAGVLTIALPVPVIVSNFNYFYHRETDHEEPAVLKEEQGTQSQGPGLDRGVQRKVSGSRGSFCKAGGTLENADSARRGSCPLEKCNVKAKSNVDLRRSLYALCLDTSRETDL

For this assay, the target named is human Kv1.5 channel (Homo sapiens, UniProt P22460). The experiment in a line: Test A: Rb+ efflux assay. In kind it is cell-based. As to conditions: CHO cells stably transfected with cDNA for human Kv1.5. The protocol:
This assay identifies compounds that block the human Kv1.5 channel potassium channel heterologously expressed in Chinese Hamster Ovary (CHO) cells by means of Rb+ ion efflux using Flame Atomic Absorption Spectroscopy. For experimental studies, CHO cells stably transfected with cDNA for human Kv1.5 were grown as confluent layers in Falcon, 384-well tissue culture-treated black-walled clear-bottomed plates and the plates were incubated overnight at 37° C. in a cell culture incubator.
After incubating overnight the cell plates were washed and a buffer containing Rb+ ions were added to the cell plates. The plates were then incubated for another 3-4 hours in a CO2-incubator (37° C.). Following this incubation period plates were washed, compounds were added and subsequently a buffer containing elevated K+ concentrations were added in order to activate the Kv1.5 channel. Following a short incubation time, aliquots of the supernatants were transferred to supernatant plates for subsequent determination of the Rb+ content using Atomic Absorption Spectrometry (ICR8000 instrument, Aurora Biomed Inc.).
Broadly, the IC50 is the concentration needed to halve the response being measured. Read a high IC50 as weaker potency. On to `CC(CN1C(=O)c2ccccc2C1C(=O)NCc1ccc(N(C)C)cc1)c1ccc(Cl)cc1` (stereo not shown) [2-[2-(4-chlorophenyl)propyl]-N-[4-(dimethylamino)benzyl]-3-oxoisoindoline-1-carboxamide], for which inhibition was half-maximal at 1.8 µM (IC50). Compound `CC(CN1C(=O)c2ccccc2C1C(=O)NCc1ccc2c(c1)OC(F)(F)O2)c1ccc(Cl)cc1` (stereo not shown) [2-[2-(4-chlorophenyl)propyl]-N-[(2,2-difluoro-1,3-benzodioxol-5-yl)methyl]-3-oxoisoindoline-1-carboxamide] came in with an IC50 of 0.58 µM. The result for `CN(C)c1ccc(CNC(=O)C2c3ccccc3C(=O)N2Cc2cc(C(F)(F)F)cc(C(F)(F)F)c2)cc1` (stereo not shown) [2-[3,5-bis(trifluoromethyl)benzyl]-N-[4-(dimethylamino)benzyl]-3-oxoisoindoline-1-carboxamide] reads 1.8 µM; that for `O=C(NCc1ccc(F)cc1)C1c2ccccc2C(=O)N1C(c1ccncc1)c1ccc(Cl)cc1` (stereo not shown) [2-[(4-chlorophenyl)(pyridin-4-yl)methyl]-N-(4-fluorobenzyl)-3-oxoisoindoline-1-carboxamide], 2.1 µM. The result for `CNC(=O)C1c2cc(Br)ccc2C(=O)N1Cc1ccccc1C1CCCC1` (stereo not shown) [6-bromo-2-(2-cyclopentylbenzyl)-N-methyl-3-oxoisoindoline-1-carboxamide] reads 2.7 µM; that for `O=C(NCCCC(F)F)C1c2cc(Cl)ccc2C(=O)N1Cc1ccccc1C1CCCC1` (stereo not shown) [6-chloro-2-(2-cyclopentylbenzyl)-N-(4,4-difluorobutyl)-3-oxoisoindoline-1-carboxamide], 1.3 µM. The compound `CC(CN1C(=O)c2ccc(Cl)cc2C1C(=O)NCCCC(F)(F)F)c1ccc(Cl)cc1` (stereo not shown) [6-chloro-2-[2-(4-chlorophenyl)propyl]-3-oxo-N-(4,4,4-trifluorobutyl)isoindoline-1-carboxamide] yielded an IC50 of 0.46 µM.

Take `CC(CN1C(=O)c2ccc(Cl)cc2C1C(=O)NCc1cccnc1)c1ccc(Cl)cc1` (stereo not shown) [6-chloro-2-[2-(4-chlorophenyl)propyl]-3-oxo-N-(pyridin-3-ylmethyl)isoindoline-1-carboxamide]: the midpoint of inhibition, the IC50, lay at 0.68 µM. The result for `CC(CN1C(=O)c2ccc(Cl)cc2C1C(=O)NCc1ccc(C(F)(F)F)nc1)c1ccc(Cl)cc1` (stereo not shown) [6-chloro-2-[2-(4-chlorophenyl)propyl]-3-oxo-N-{[6-(trifluoromethyl)pyridin-3-yl]methyl}isoindoline-1-carboxamide] reads 0.42 µM; that for `CC(CN1C(=O)c2ccc(Cl)cc2C1C(=O)NCc1ccc(S(C)(=O)=O)cc1)c1ccc(Cl)cc1` (stereo not shown) [6-chloro-2-[2-(4-chlorophenyl)propyl]-N-[4-(methylsulfonyl)benzyl]-3-oxoisoindoline-1-carboxamide], 2.8 µM; that for `C[C@H](c1ccccc1)N1C(=O)c2ccc(Cl)cc2C1C(=O)NCCCC(F)(F)F` (stereo partly drawn) [6-chloro-3-oxo-2-[(1R)-1-phenylethyl]-N-(4,4,4-trifluorobutyl)isoindoline-1-carboxamide], 2 µM. On to `O=C(NCCCC(F)(F)F)C1c2cc(Cl)ccc2C(=O)N1Cc1ccccc1C(F)(F)F` (stereo not shown) [6-chloro-3-oxo-N-(4,4,4-trifluorobutyl)-2-[2-(trifluoromethyl)benzyl]isoindoline-1-carboxamide], for which the midpoint of inhibition, the IC50, lay at 2.5 µM.

`CC(C)(CO)CN1C(=O)c2ccc(Cl)cc2C1C(=O)NCc1cccc(Cl)c1` (stereo not shown) [6-chloro-N-(3-chlorobenzyl)-2-(3-hydroxy-2,2-dimethylpropyl)-3-oxoisoindoline-1-carboxamide]: the 50% inhibitory concentration (IC50) is 2.1 µM. `CC(C)(CO)CN1C(=O)c2ccc(Cl)cc2C1C(=O)NCc1cccc(OC(F)F)c1` (stereo not shown) [6-chloro-N-[3-(difluoromethoxy)benzyl]-2-(3-hydroxy-2,2-dimethylpropyl)-3-oxoisoindoline-1-carboxamide] showed a half-inhibitory concentration (IC50) of 0.41 µM. Compound `CC(C)(CO)CN1C(=O)c2ccc(F)cc2C1C(=O)NCc1cccc(C(F)(F)F)c1` (stereo not shown) [6-fluoro-2-(3-hydroxy-2,2-dimethylpropyl)-3-oxo-N-[3-(trifluoromethyl)benzyl]isoindoline-1-carboxamide] returned an IC50 of 1.7 µM. The result for `O=C(NCc1ccccc1)C1c2cc(Br)ccc2C(=O)N1Cc1ccccc1` (stereo not shown) [N,2-dibenzyl-6-bromo-3-oxoisoindoline-1-carboxamide] reads 0.84 µM; that for `CC(CN1C(=O)c2ccccc2C1C(=O)NCc1ccc2c(c1)OCO2)c1ccc(Cl)cc1` (stereo not shown) [N-(1,3-benzodioxol-5-ylmethyl)-2-[2-(4-chlorophenyl)propyl]-3-oxoisoindoline-1-carboxamide], 0.62 µM; that for `CC(CN1C(=O)c2ccccc2C1C(=O)NCc1ccccc1Cl)c1ccc(Cl)cc1` (stereo not shown) [N-(2-chlorobenzyl)-2-[2-(4-chlorophenyl)propyl]-3-oxoisoindoline-1-carboxamide], 0.75 µM. The result for `CC(C)(C)CN1C(=O)c2ccccc2C1C(=O)NCc1ccc(Cl)c(Cl)c1` (stereo not shown) [N-(3,4-dichlorobenzyl)-2-(2,2-dimethylpropyl)-3-oxoisoindoline-1-carboxamide] reads 2.5 µM. `CC(C)(C)CN1C(=O)c2ccccc2C1C(=O)NCc1cccc(Cl)c1` (stereo not shown) [N-(3-chlorobenzyl)-2-(2,2-dimethylpropyl)-3-oxoisoindoline-1-carboxamide]: the IC50 came out at 2.9 µM. The result for `CC(C)(CO)CN1C(=O)c2ccc(F)cc2C1C(=O)NCc1cccc(Cl)c1` (stereo not shown) [N-(3-chlorobenzyl)-6-fluoro-2-(3-hydroxy-2,2-dimethylpropyl)-3-oxoisoindoline-1-carboxamide] reads 0.34 µM. The compound `O=C(NCCCC(F)F)C1c2ccccc2C(=O)N1C(c1ccccc1)c1ccccc1` (stereo not shown) [N-(4,4-difluorobutyl)-2-(diphenylmethyl)-3-oxoisoindoline-1-carboxamide] yielded an IC50 of 8 µM. The result for `Cc1c(OCF)ccc2c1C(=O)N(CC(C)c1ccc(Cl)cc1)C2C(=O)NC(C)(C)C` (stereo not shown) [N-(tert-butyl)-2-[2-(4-chlorophenyl)propyl]-5-(fluoromethoxy)-4-methyl-3-oxoisoindoline-1-carboxamide] reads 3 µM.

`Cn1nc(CN2C(=O)c3ccccc3C2C(=O)NC(C)(C)C)cc1-c1ccccc1` (stereo not shown) [N-(tert-butyl)-2-[(1-methyl-5-phenyl-1H-pyrazol-3-yl)methyl]-3-oxoisoindoline-1-carboxamide]: the IC50 amounted to 2.5 µM. The result for `Cc1c(O)ccc2c1C(=O)N(Cc1ccccc1-c1ccc(Cl)c(Cl)c1)C2C(=O)NC(C)(C)C` (stereo not shown) [N-(tert-butyl)-2-[(3′,4′-dichlorobiphenyl-2-yl)methyl]-5-hydroxy-4-methyl-3-oxoisoindoline-1-carboxamide] reads 0.72 µM; that for `CC(C)(C)NC(=O)C1c2ccccc2C(=O)N1Cc1ccccc1-c1ccc(F)c(F)c1` (stereo not shown) [N-(tert-butyl)-2-[(3′,4′-difluorobiphenyl-2-yl)methyl]-3-oxoisoindoline-1-carboxamide], 2.2 µM; that for `Cc1c(O)ccc2c1C(=O)N(Cc1ccccc1-c1ccc(F)c(F)c1)C2C(=O)NC(C)(C)C` (stereo not shown) [N-(tert-butyl)-2-[(3′,4′-difluorobiphenyl-2-yl)methyl]-5-hydroxy-4-methyl-3-oxoisoindoline-1-carboxamide], 2 µM.

`CC(C)(C)NC(=O)C1c2ccccc2C(=O)N1Cc1cc(F)ccc1-c1ccc(F)cc1` (stereo not shown) [N-(tert-butyl)-2-[(4,4′-difluorobiphenyl-2-yl)methyl]-3-oxoisoindoline-1-carboxamide]: the IC50 stood at 5.6 µM.
